Biological target: SARS-CoV 3CL^pro (Severe acute respiratory syndrome coronavirus, UniProt P0C6X7)
Assay: biochemical

Compound: Cc1ccc(-c2nc(SCc3ccccc3)[nH]c(=O)c2C#N)cc1 [Compound 6g]
- IC50: > 50 µM

Compound: N#Cc1c(-c2cccc([N+](=O)[O-])c2)nc(SCCc2ccccc2)[nH]c1=O [Compound 6j]
- IC50: > 50 µM

Compound: COc1ccc(-c2nc(SCc3ccccc3)[nH]c(=O)c2C#N)cc1 [Compound 6d]
- IC50: > 50 µM

Compound: N#Cc1c(-c2ccccc2)nc(SCc2ccccc2)[nH]c1=O [Compound 6a]
- IC50: > 50 µM

Compound: N#Cc1c(-c2ccccc2)nc(SCCc2ccccc2)[nH]c1=O [Compound 6b]
- IC50: > 50 µM

Compound: Cc1ccc(-c2nc(SCCc3ccccc3)[nH]c(=O)c2C#N)cc1 [Compound 6h]
- IC50: > 50 µM

Compound: Cc1ccc(-c2nc(SCc3ccc([N+](=O)[O-])cc3)[nH]c(=O)c2C#N)cc1 [Compound 6i]
- IC50: > 50 µM

Compound: N#Cc1c(-c2cccc(Cl)c2)nc(SCc2ccccc2)[nH]c1=O [Compound 6n]
- IC50: > 50 µM

Reference: article PMC7126861 (Bioorganic & Medicinal Chemistry Letters, 2010)
